Measured values taken from patent US20240166652A1, “MODULATORS OF THE INTEGRATED STRESS PATHWAY” (Calico Life Sciences LLC, priority 2017, published 2024).

test system: ATF4 luciferase reporter in HEK293T cells; assay: ATF4-Luc assay (ATF4 luciferase reporter, tunicamycin-treated HEK293T cells); type: cell-based, human; details: Homo sapiens, HEK-293T; HEK293T cells carrying the ATF4 luciferase reporter, 1 μg/mL tunicamycin, 7 hours

Compound	EC50 [nM]
CC(C)(C)c1ccc(OCC(=O)NC23CCC(NC(=O)COc4ccc(Cl)c(F)c4)(CC2)[C@@H](O)C3)cc1 [Compound 477, 2-(4-tert-butylphenoxy)-N-{(3S)-4-[2-(4-chloro-3-fluorophenoxy)acetamido]-3-hydroxybicyclo[2.2.2]octan-1-yl}acetamide]	> 2000
CC(C)c1cc(OCC(=O)NC23CCC(NC(=O)COc4ccc(Cl)c(F)c4)(CC2)[C@@H](O)C3)cc(C(C)C)c1 [Compound 478, 2-(4-chloro-3-fluorophenoxy)-N-[(2S)-4-{2-[3,5-di(propan-2-yl)phenoxy]acetamido}-2-hydroxybicyclo[2.2.2]octan-1-yl]acetamide]	> 2000
O=C(COc1ccc(Cl)c(F)c1)NC12CC(NS(=O)(=O)Cc3ccccc3)(C1)C2 [Compound 479, 2-(4-chloro-3-fluorophenoxy)-N-{3-[(phenylmethanesulfonyl)amino]bicyclo[1.1.1]pentan-1-yl]acetamide]	> 2000
O=C(COc1ccc(Cl)c(F)c1)NC12CC(NS(=O)(=O)CCc3ccc(F)cc3)(C1)C2 [Compound 480, 2-(4-chloro-3-fluorophenoxy)-N-(3-{[2-(4-fluorophenyl)ethanesulfonyl]amino}bicyclo[1.1.1]pentan-1-yl)acetamide]	> 2000
O=C(COc1ccc(Cl)c(F)c1)NC12CC(NS(=O)(=O)Cc3ccccc3F)(C1)C2 [Compound 481, 2-(4-chloro-3-fluorophenoxy)-N-(3-{[(2-fluorophenyl)methanesulfonyl]amino}bicyclo[1.1.1]pentan-1-yl)acetamide]	> 2000
Cc1ccccc1CS(=O)(=O)NC12CC(NC(=O)COc3ccc(Cl)c(F)c3)(C1)C2 [Compound 482, 2-(4-chloro-3-fluorophenoxy)-N-(3-{[(2-methylphenyl)methanesulfonyl]amino}bicyclo[1.1.1]pentan-1-yl)acetamide]	> 2000
O=C(COc1ccc(Cl)c(F)c1)NC12CC(NS(=O)(=O)Cc3ccc(F)c(F)c3)(C1)C2 [Compound 483, 2-(4-chloro-3-fluorophenoxy)-N-(3-{[(3,4-difluorophenyl)methanesulfonyl]amino}bicyclo[1.1.1]pentan-1-yl)acetamide]	> 2000
O=C(COc1ccc(Cl)c(F)c1)NC12CC(NS(=O)(=O)Cc3cc(F)cc(F)c3)(C1)C2 [Compound 484, 2-(4-chloro-3-fluorophenoxy)-N-(3-{[(3,5-difluorophenyl)methanesulfonyl]amino}bicyclo[1.1.1]pentan-1-yl)acetamide]	> 2000
O=C(COc1ccc(Cl)c(F)c1)NC12CC(NS(=O)(=O)CCOc3ccccc3F)(C1)C2 [Compound 485, 2-(4-chloro-3-fluorophenoxy)-N-(3-{[2-(2-fluorophenoxy)ethanesulfonyl]amino}bicyclo[1.1.1]pentan-1-yl)acetamide]	500 to 2000
Cc1cccc(CS(=O)(=O)NC23CC(NC(=O)COc4ccc(Cl)c(F)c4)(C2)C3)c1 [Compound 486, 2-(4-chloro-3-fluorophenoxy)-N-(3-{[(3-methylphenyl)methanesulfonyl]amino}bicyclo[1.1.1]pentan-1-yl)acetamide]	> 2000
O=C(COc1ccc(Cl)c(F)c1)NC12CC(NS(=O)(=O)Cc3ccc(F)cc3)(C1)C2 [Compound 487, 2-(4-chloro-3-fluorophenoxy)-N-(3-{[(4-fluorophenyl)methanesulfonyl]amino}bicyclo[1.1.1]pentan-1-yl)acetamide]	> 2000
O=C(COc1ccc(Cl)c(F)c1)NC12CC(NS(=O)(=O)CCOc3ccccc3)(C1)C2 [Compound 488, 2-(4-chloro-3-fluorophenoxy)-N-{3-[(2-phenoxyethanesulfonyl)amino]bicyclo[1.1.1]pentan-1-yl}acetamide]	> 2000
O=C(COc1ccc(Cl)c(F)c1)NC12CC(NS(=O)(=O)CCOc3ccc(F)cc3)(C1)C2 [Compound 489, 2-(4-chloro-3-fluorophenoxy)-N-(3-{[2-(4-fluorophenoxy)ethanesulfonyl]amino}bicyclo[1.1.1]pentan-1-yl)acetamide]	500 to 2000
N#Cc1ccc(CS(=O)(=O)NC23CC(NC(=O)COc4ccc(Cl)c(F)c4)(C2)C3)cc1 [Compound 490, 2-(4-chloro-3-fluorophenoxy)-N-(3-{[(4-cyanophenyl)methanesulfonyl]amino}bicyclo[1.1.1]pentan-1-yl)acetamide]	500 to 2000
O=C(COc1ccc(Cl)c(F)c1)NC12CC(NC(=O)Cc3cc(F)cc(F)c3)(C1)C2 [Compound 491, 2-(4-chloro-3-fluorophenoxy)-N-{3-[2-(3,5-difluorophenyl)acetamido]bicyclo[1.1.1]pentan-1-yl}acetamide]	> 2000
O=C(CNC(=O)c1ccccc1)NC12CC(NC(=O)COc3ccc(Cl)c(F)c3)(C1)C2 [Compound 492, N-[2-({3-[2-(4-chloro-3-fluorophenoxy)acetamido]bicyclo[1.1.1]pentan-1-yl}amino)-2-oxoethyl]benzamide]	> 2000

Compound	EC50 [nM]
Cc1ncnc(C)c1OCC(=O)NC12CCC(NC(=O)COc3ccc(Cl)c(F)c3)(CC1)C[C@@H]2O [Compound 493, 2-(4-chloro-3-fluorophenoxy)-N-[(3S)-4-{2-[(4,6-dimethylpyrimidin-5-yl)oxy]acetamido}-3-hydroxybicyclo[2.2.2]octan-1-yl]acetamide]	> 2000
CCc1cc(C)cc(OCC(=O)NC23CCC(NC(=O)COc4ccc(Cl)c(F)c4)(CC2)C[C@@H]3O)c1 [Compound 494, 2-(4-chloro-3-fluorophenoxy)-N-{(3S)-4-[2-(3-ethyl-5-methylphenoxy)acetamido]-3-hydroxybicyclo[2.2.2]octan-1-yl}acetamide]	250 to 500
O=C(COc1ccc(Cl)c(F)c1)NC12CCC(NC(=O)COc3cccnc3)(CC1)[C@@H](O)C2 [Compound 495, 2-(4-chloro-3-fluorophenoxy)-N-[(3S)-3-hydroxy-4-{2-[(pyridin-3-yl)oxy]acetamido}bicyclo[2.2.2]octan-1-yl]acetamide]	10 to 50
CC(C)c1cc(OCC(=O)NC23CCC(NC(=O)COc4ccc(Cl)c(F)c4)(CC2)C[C@@H]3O)cc(C(C)C)c1 [Compound 496, 2-(4-chloro-3-fluorophenoxy)-N-[(3S)-4-{2-[3,5-di(propan-2-yl)phenoxy]acetamido}-3-hydroxybicyclo[2.2.2]octan-1-yl]acetamide]	500 to 2000
COc1cc(OCC(=O)NC23CCC(NC(=O)COc4ccc(Cl)c(F)c4)(CC2)C[C@@H]3O)nc(SC)n1 [Compound 497, 2-(4-chloro-3-fluorophenoxy)-N-[(3S)-3-hydroxy-4-(2-{[6-methoxy-2-(methylsulfanyl)pyrimidin-4-yl]oxy}acetamido)bicyclo[2.2.2]octan-1-yl]acetamide]	500 to 2000
COc1cc(OC)nc(OCC(=O)NC23CCC(NC(=O)COc4ccc(Cl)c(F)c4)(CC2)C[C@@H]3O)n1 [Compound 498, 2-(4-chloro-3-fluorophenoxy)-N-[(3S)-4-{2-[(4,6-dimethoxypyrimidin-2-yl)oxy]acetamido}-3-hydroxybicyclo[2.2.2]octan-1-yl]acetamide]	250 to 500
Cc1ncc2c(c1OCC(=O)NC13CCC(NC(=O)COc4ccc(Cl)c(F)c4)(CC1)C[C@@H]3O)COC2 [Compound 499, 2-(4-chloro-3-fluorophenoxy)-N-[(3S)-3-hydroxy-4-{2-[(6-methyl-1,3-dihydrofuro[3,4-c]pyridin-7-yl)oxy]acetamido}bicyclo[2.2.2]octan-1-yl]acetamide]	> 2000
O=C(COc1ccc(Cl)c(F)c1)NC12CCC(NC(=O)COc3cccc(C(F)(F)F)c3)(CC1)[C@@H](O)C2 [Compound 501, 2-(4-chloro-3-fluorophenoxy)-N-[(3S)-3-hydroxy-4-{2-[3-(trifluoromethyl)phenoxy]acetamido}bicyclo[2.2.2]octan-1-yl]acetamide]	< 10
Cc1cc(C)cc(OCC(=O)NC23CCC(NC(=O)COc4ccc(Cl)c(F)c4)(CC2)C[C@@H]3O)c1 [Compound 502, 2-(4-chloro-3-fluorophenoxy)-N-{(3S)-4-[2-(3,5-dimethylphenoxy)acetamido]-3-hydroxybicyclo[2.2.2]octan-1-yl}acetamide]	50 to 250
Cc1cc(OCC(=O)NC23CCC(NC(=O)COc4ccc(Cl)c(F)c4)(CC2)C[C@@H]3O)cc(C)c1C [Compound 503, 2-(4-chloro-3-fluorophenoxy)-N-{(3S)-3-hydroxy-4-[2-(3,4,5-trimethylphenoxy)acetamido]bicyclo[2.2.2]octan-1-yl]acetamide]	10 to 50
CS(=O)(=O)c1ccc(OCC(=O)NC23CCC(NC(=O)COc4ccc(Cl)c(F)c4)(CC2)C[C@@H]3O)cc1 [Compound 504, 2-(4-chloro-3-fluorophenoxy)-N-[(3S)-3-hydroxy-4-{2-[4-(methanesulfonyl)phenoxy]acetamido}bicyclo[2.2.2]octan-1-yl] acetamide]	50 to 250
O=C(COc1ccc(Cl)c(F)c1)NC12CCC(NC(=O)COc3ccc(OC(F)(F)F)cc3)(CC1)[C@@H](O)C2 [Compound 505, 2-(4-chloro-3-fluorophenoxy)-N-[(3S)-3-hydroxy-4-{2-[4-(trifluoromethoxy)phenoxy]acetamido}bicyclo[2.2.2]octan-1-yl] acetamide]	< 10
CC(C)(C)c1ccc(OCC(=O)NC23CCC(NC(=O)COc4ccc(Cl)c(F)c4)(CC2)C[C@@H]3O)cc1 [Compound 506, 2-(4-tert-butylphenoxy)-N-{(2S)-4-[2-(4-chloro-3-fluorophenoxy)acetamido]-2-hydroxybicyclo[2.2.2]octan-1-yl}acetamide]	250 to 500
O=C(COc1ccc(Cl)c(F)c1)NC12CCC(NC(=O)COc3ccc(C(F)(F)F)cc3)(CC1)[C@@H](O)C2 [Compound 507, 2-(4-chloro-3-fluorophenoxy)-N-[(3S)-3-hydroxy-4-{2-[4-(trifluoromethyl)phenoxy]acetamido}bicyclo[2.2.2]octan-1-yl]acetamide]	< 10
CCOc1ccc(OCC(=O)NC23CCC(NC(=O)COc4ccc(Cl)c(F)c4)(CC2)C[C@@H]3O)cc1 [Compound 508, 2-(4-chloro-3-fluorophenoxy)-N-{(3S)-4-[2-(4-ethoxyphenoxy)acetamido]-3-hydroxybicyclo[2.2.2]octan-1-yl}acetamide]	10 to 50
